In the experiment the test system is Haemophilus influenzae. The experiment in a line: Chinchilla model of otitis media (middle ear inoculated with Haemophilus influenzae). In kind it is in vivo, Chinchilla langer. The note with it: oral gavage, 20 mg/kg BID for 6 days; 3 animals/group; positive control.

Experimental: To establish and evaluate the animal model, each chinchilla was inoculated with Haemophilus influenzae directly into the middle ear of each ear by transbullar injection at a concentration of 100 cfu in a volume of 0.2 mL. Each chinchilla was given an otoscope ear exam prior to being placed on study. Dosing with a composition of the invention or control oral amoxicillin began approximately 48 hours after the bacterial inoculation. All animals were administered Buprenorphine 0.05 mg/kg twice a day subcutaneously for analgesia for the duration of the study.
At the end of the dosing period (8 days after bacterial inoculation), each animal was euthanized, their ear canals washed with saline, and examined. In particular, samples from the middle ear from each chinchilla were collected. One ear sample was cultured overnight per laboratory procedures. Approximately 24 hours after the samples plated out, they were counted and the colony forming units (cfu) recorded.
The positive control article (amoxicillin) was administered orally by gavage to three chinchillas twice per day for 6 days, approximately 8 hours apart. 2, 4 or 6 drops of ofloxacin 0.3% liposome formulation or ciprofloxacin 0.3% liposome formulation were administered to two groups of three chinchillas each as a maximal feasible dose for these animals.

`CC1(C)S[C@@H]2[C@H](NC(=O)[C@H](N)c3ccc(O)cc3)C(=O)N2[C@H]1C(=O)O` [Amoxicillin, amoxicillin]: the “Active infection present after 6 days” value is on record as “No active infection present in any animal”.
